Source: patent US10517889B2, “Modulators of SMAD7 expression” (Ionis Pharmaceuticals, Inc., priority 2017, dated 2019)
Strand notation (5' to 3'): a small letter for the sugar, then the base; units joined by * are phosphorothioate-linked, units joined directly phosphodiester-linked; [ ] holds rarer units or linkages, { } end groups; capitals alone tell only the bases. k = constrained ethyl (cEt); [5mC] = 5-methylcytosine; d = 2'-deoxy (DNA)

These substances were tested on human SMAD7 mRNA (assay: Antisense inhibition of human SMAD7 mRNA expression in Hep3B cells by 3-10-3 cEt gapmers, 10,000 nM, electroporation (Example 2)). Conditions: Hep3B cells, 10,000 nM antisense oligonucleotide, electroporation, approximately 24 hours, RT-PCR primer probe set RTS5062, relative to untreated control cells.
Assay type: cell-based
Procedure, shortened: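 Hep3B cells (20,000 per well) were electroporated with 10,000 nM 16-mer 3-10-3 cEt gapmer (phosphorothioate, 5-methylcytosine). After about 24 h, SMAD7 mRNA was quantified by qRT-PCR with primer probe set RTS5062, normalised to RIBOGREEN total RNA, and expressed as percent inhibition versus untreated cells.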
With “799955 (antisense k[5mC]*kG*k[5mC]*dT*d[5mC]*dA*dG*dA*dA*dA*dA*dT*dG*k[5mC]*k[5mC]*k[5mC]) [compound 799955]” the “% Inhibition” value was 50%. “790847 (kT*k[5mC]*kT*dT*dA*d[5mC]*dA*dA*dA*dG*dA*dG*dT*kT*kA*kT; antisense) [compound 790847]” was tested, and the “% Inhibition” value was 24%. “800017 (kT*kA*kA*dA*dA*d[5mC]*dA*dG*dT*dA*dT*dG*dT*kG*kT*kT; antisense) [compound 800017]” was tested, and the “% Inhibition” value was 11%. With “800075 (antisense kT*kA*kA*dT*dT*dT*dT*d[5mC]*d[5mC]*dT*d[5mC]*dA*dA*k[5mC]*kA*kG) [compound 800075]” the “% Inhibition” value was 55%. For “799895 (antisense k[5mC]*kT*kG*dA*dG*dA*dG*dT*dG*dT*dA*dG*dG*kA*kG*kA) [compound 799895]”, the “% Inhibition” value was 50%. For “799992 (kG*kG*k[5mC]*dA*d[5mC]*dG*dG*d[5mC]*d[5mC]*dG*d[5mC]*d[5mC]*dT*k[5mC]*k[5mC]*kT; antisense) [compound 799992]”, the “% Inhibition” value was 9%. With “800038 (kT*kG*k[5mC]*dT*d[5mC]*d[5mC]*dT*d[5mC]*d[5mC]*d[5mC]*dT*d[5mC]*dG*k[5mC]*kT*kG; antisense) [compound 800038]” the “% Inhibition” value was 2%. In the case of “798820 (kT*k[5mC]*kT*d[5mC]*d[5mC]*dT*d[5mC]*d[5mC]*d[5mC]*dA*dG*dT*dA*kT*kG*k[5mC]; antisense) [compound 798820]”, the “% Inhibition” value is reported as 24%.

Same assay, conditions: Hep3B cells, electroporation with 10,000 nM antisense oligonucleotide, approximately 24 hours, RTS5062, percent inhibition of SMAD7 mRNA relative to untreated control cells
“799725 (antisense kG*kG*k[5mC]*d[5mC]*dA*d[5mC]*dT*dG*d[5mC]*dA*dG*d[5mC]*d[5mC]*k[5mC]*kT*kA) [compound 799725]” was tested, and the “% Inhibition” value was 0%. “799526 (kA*kA*kG*dG*dA*dG*dG*dT*dT*dT*dG*dG*dG*kT*kT*kG; antisense) [compound 799526]” was tested, and the “% Inhibition” value was 12%. “799646 (antisense k[5mC]*kA*kG*dA*dA*dA*d[5mC]*dT*d[5mC]*d[5mC]*dA*dG*dA*kT*kG*kG) [compound 799646]” was tested, and the “% Inhibition” value was 18%. With “799826 (antisense kG*kA*kT*d[5mC]*dA*dT*dT*d[5mC]*d[5mC]*d[5mC]*dA*d[5mC]*dA*k[5mC]*k[5mC]*k[5mC]) [compound 799826]” the “% Inhibition” value was 33%. In the case of “799784 (k[5mC]*kA*kG*dG*dA*dA*d[5mC]*dT*dG*dG*dT*d[5mC]*d[5mC]*kT*k[5mC]*kT; antisense) [compound 799784]”, the “% Inhibition” value is reported as 19%. For “799279 (antisense kA*k[5mC]*k[5mC]*dT*dT*dG*dT*d[5mC]*dA*d[5mC]*d[5mC]*d[5mC]*dG*kT*k[5mC]*kT) [compound 799279]”, the “% Inhibition” value was 48%. With “799552 (kA*kG*kG*dG*dA*dA*d[5mC]*dA*dA*dT*dT*dA*d[5mC]*kA*kG*k[5mC]; antisense) [compound 799552]” the “% Inhibition” value was 58%.

Same assay, conditions: Hep3B cells, electroporation with 10,000 nM antisense oligonucleotide, approximately 24 hours, SMAD7 mRNA by RT-PCR (RTS5062), relative to untreated control cells
In the case of “798898 (kA*kG*k[5mC]*dT*dG*d[5mC]*dT*dG*dA*dT*dG*dA*dA*k[5mC]*kT*kG; antisense) [compound 798898]”, the “% Inhibition” value is reported as 2%. With “800000 (k[5mC]*kA*kT*dT*dT*dA*dG*dG*dA*dA*d[5mC]*dA*dA*kG*kG*kG; antisense) [compound 800000]” the “% Inhibition” value was 37%. “799390 (antisense k[5mC]*kA*kA*dA*dA*d[5mC]*dT*dT*dT*dT*dA*dA*dT*kT*kA*kG) [compound 799390]” was tested, and the “% Inhibition” value was 0%. With “798851 (kA*k[5mC]*k[5mC]*dA*dT*d[5mC]*d[5mC]*dA*d[5mC]*d[5mC]*dT*d[5mC]*d[5mC]*k[5mC]*kG*k[5mC]; antisense) [compound 798851]” the “% Inhibition” value was 21%. “830151 (antisense kG*k[5mC]*k[5mC]*dA*dG*dT*dG*dG*dT*dG*dA*d[5mC]*d[5mC]*kT*k[5mC]*k[5mC]) [compound 830151]” was tested, and the “% Inhibition” value was 45%. “799505 (antisense k[5mC]*k[5mC]*k[5mC]*dG*dG*d[5mC]*dT*dA*dA*dG*dG*dA*dA*kA*kG*kG) [compound 799505]” was tested, and the “% Inhibition” value was 31%. In the case of “800088 (antisense kA*kA*kT*dG*dA*dG*dG*dG*dT*dG*dG*d[5mC]*dT*kT*kG*kG) [compound 800088]”, the “% Inhibition” value is reported as 54%. “800028 (k[5mC]*kA*k[5mC]*dA*dG*d[5mC]*d[5mC]*d[5mC]*dA*d[5mC]*dA*d[5mC]*dG*kA*kG*kT; antisense) [compound 800028]” was tested, and the “% Inhibition” value was 10%. With “830076 (k[5mC]*kA*k[5mC]*dA*dT*dT*d[5mC]*dA*dG*dG*dG*dT*dG*kT*k[5mC]*kA; antisense) [compound 830076]” the “% Inhibition” value was 43%. “799475 (antisense kG*kT*kG*dA*dG*d[5mC]*dT*dG*dG*dG*d[5mC]*dT*dA*kT*kT*k[5mC]) [compound 799475]” was tested, and the “% Inhibition” value was 51%. For “830160 (antisense kT*kG*kG*dT*dG*dT*dG*dT*dT*dA*dA*d[5mC]*d[5mC]*kA*k[5mC]*kT) [compound 830160]”, the “% Inhibition” value was 54%. “790496 (kG*k[5mC]*kA*dG*dA*dG*dT*d[5mC]*dG*dG*d[5mC]*dT*dA*kA*kG*kG; antisense) [compound 790496]” was tested, and the “% Inhibition” value was 42%.

Same assay, conditions: Hep3B cells, electroporation with 10,000 nM antisense oligonucleotide, approximately 24 hours, primer probe set RTS5062, relative to untreated control cells
In the case of “798790 (k[5mC]*kG*kG*dG*dT*dA*dT*d[5mC]*dT*dG*dG*dA*dG*kT*kA*kA; antisense) [compound 798790]”, the “% inhibition of SMAD7 mRNA expression” value is reported as 49%. For “799120 (antisense kA*kA*kT*dA*dG*d[5mC]*dA*dG*dA*dG*d[5mC]*dT*dT*kA*kA*k[5mC]) [compound 799120]”, the “% Inhibition” value was 45%. For “798749 (antisense kG*kG*kA*d[5mC]*dT*d[5mC]*d[5mC]*dA*d[5mC]*dG*dG*d[5mC]*d[5mC]*kT*kG*kG) [compound 798749]”, the “% inhibition of SMAD7 mRNA expression” value was 63%. “799403 (antisense kG*k[5mC]*kT*dA*dA*dG*dG*dT*d[5mC]*dA*d[5mC]*dT*dG*kT*kT*k[5mC]) [compound 799403]” was tested, and the “% inhibition of SMAD7 mRNA expression” value was 0%. For “799015 (kG*kG*kG*dA*d[5mC]*dA*dT*d[5mC]*d[5mC]*dA*dT*dA*dA*kG*kA*kG; antisense) [compound 799015]”, the “% Inhibition” value was 25%. For “798988 (antisense kT*kG*kA*dA*dA*dT*dG*dA*dT*dG*dA*d[5mC]*d[5mC]*kG*k[5mC]*k[5mC]) [compound 798988]”, the “% inhibition of SMAD7 mRNA expression” value was 69%. With “799033 (k[5mC]*k[5mC]*k[5mC]*dA*dG*dG*dT*dA*d[5mC]*dT*dG*d[5mC]*d[5mC]*kT*k[5mC]*kT; antisense) [compound 799033]” the “% Inhibition” value was 35%. “799236 (kT*kA*kA*dA*d[5mC]*dT*d[5mC]*d[5mC]*dT*dT*dT*dA*dG*kA*kA*kA; antisense) [compound 799236]” was tested, and the “% Inhibition” value was 45%. For “799154 (antisense kA*kG*kA*dG*dT*dT*dA*dG*dG*dT*dG*dT*d[5mC]*kA*kG*k[5mC]) [compound 799154]”, the “% Inhibition” value was 39%. “772533 (antisense kT*kG*kA*dA*dG*dA*dA*dG*dT*d[5mC]*dG*dG*dG*k[5mC]*kG*k[5mC]) [compound 772533]” was tested, and the “% inhibition of SMAD7 mRNA expression” value was 31%. “798985 (antisense kG*kA*k[5mC]*d[5mC]*dG*d[5mC]*d[5mC]*d[5mC]*d[5mC]*d[5mC]*d[5mC]*dT*dT*k[5mC]*kA*kT) [compound 798985]” was tested, and the “% inhibition of SMAD7 mRNA expression” value was 41%.

Same assay, conditions: Hep3B cells, electroporation, 10,000 nM antisense oligonucleotide, approximately 24 hours, RTS5062, relative to untreated control cells
With “799833 (antisense kT*kT*kT*d[5mC]*dT*dG*dA*dA*d[5mC]*dA*dG*dA*dG*kT*k[5mC]*k[5mC]) [compound 799833]” the “% inhibition of SMAD7 mRNA expression” value was 39%. “799559 (kA*kG*k[5mC]*dT*dT*d[5mC]*dT*dA*dT*dT*d[5mC]*dG*dA*kG*k[5mC]*kT; antisense) [compound 799559]” was tested, and the “% inhibition of SMAD7 mRNA expression” value was 37%. In the case of “799613 (kT*k[5mC]*kA*d[5mC]*dA*dT*dT*d[5mC]*dG*dG*d[5mC]*dT*dG*kT*kT*kT; antisense) [compound 799613]”, the “% inhibition of SMAD7 mRNA expression” value is reported as 17%. With “799520 (antisense kG*kA*kT*dT*dG*dA*dT*dG*dT*dT*dG*dG*dG*k[5mC]*kT*kG) [compound 799520]” the “% inhibition of SMAD7 mRNA expression” value was 51%. In the case of “799306 (antisense kA*kA*kA*d[5mC]*dA*dG*d[5mC]*dA*dT*dG*dA*dA*dA*kG*kA*k[5mC]) [compound 799306]”, the “% inhibition of SMAD7 mRNA expression” value is reported as 27%.

Same assay, conditions: SMAD7 mRNA, Hep3B cells, 10,000 nM antisense oligonucleotide, electroporation, approximately 24 hours, primer probe set RTS5062, relative to untreated control cells
For “790754 (k[5mC]*kT*kA*dA*dG*d[5mC]*dT*dA*d[5mC]*dT*dT*dG*dG*kT*kT*kT; antisense) [compound 790754]”, the “% Inhibition” value was 38%. With “772733 (kG*kG*kT*dG*dA*dT*dT*dG*d[5mC]*d[5mC]*dT*dT*dG*kA*kT*kA; antisense) [compound 772733]” the “% Inhibition” value was 39%. “829784 (antisense kA*kG*kA*dT*d[5mC]*d[5mC]*dG*dG*d[5mC]*d[5mC]*dA*d[5mC]*d[5mC]*kT*kG*kA) [compound 829784]” was tested, and the “% Inhibition” value was 32%.

Same assay, conditions: SMAD7 mRNA, Hep3B cells, electroporation with 10,000 nM antisense oligonucleotide, approximately 24 hours, primer probe set RTS5062, relative to untreated control cells
In the case of “829907 (antisense kA*k[5mC]*k[5mC]*dG*dG*d[5mC]*dT*dG*dT*dT*dG*dA*dA*kG*kA*kT) [compound 829907]”, the “% Inhibition” value is reported as 23%. For “829873 (antisense kT*kT*kG*dT*d[5mC]*d[5mC]*dA*dG*dT*dG*dT*dG*dG*k[5mC]*kG*kG) [compound 829873]”, the “% Inhibition” value was 52%. For “829957 (k[5mC]*kA*k[5mC]*d[5mC]*dT*dT*dG*dT*d[5mC]*dA*d[5mC]*d[5mC]*d[5mC]*kG*kT*k[5mC]; antisense) [compound 829957]”, the “% Inhibition” value was 41%. With “829903 (antisense k[5mC]*kT*kG*dT*dT*dG*dA*dA*dG*dA*dT*dG*dA*k[5mC]*k[5mC]*kT) [compound 829903]” the “% Inhibition” value was 25%.
